Reference: ChEMBL document CHEMBL1201862, “PubChem BioAssay data set” (2004)
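Following 48 hours of exposure in 96-well plates, responses at five concentrations were used to interpolate endpoints linearly. GI50 marks 50% less growth.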 The source made the active and inactive calls. Cut-off read from the data, not from the text of the source: active = GI50 up to about 1.1 µM and inactive = higher.

How the values were obtained:
Assay in all cases: NCI-60 cell line screen, 48 h
[1] = tested on: OVCAR-5
[2] = tested on: HCT-116
[3] = tested on: HOP-18
[4] = tested on: SNB-75
[5] = tested on: KM-20L2
[6] = tested on: ACHN
[7] = tested on: MOLT-4
[8] = tested on: HL-60
[9] = tested on: M14
[10] = tested on: KM12
[11] = tested on: UACC-257
[12] = tested on: RXF 393
[13] = tested on: UACC-62
[14] = tested on: DMS-114
[15] = tested on: SF-539
[16] = tested on: SW-620
[17] = tested on: SN12C
[18] = tested on: NCI-H23
[19] = tested on: TK-10
[20] = tested on: DMS-273
[21] = tested on: SNB-78
[22] = tested on: U-251
[23] = tested on: HT-29
[24] = tested on: RPMI-8226
[25] = tested on: EKVX
[26] = tested on: IGROV-1
[27] = tested on: LOX IMVI
[28] = tested on: SNB-19
[29] = tested on: CCRF-CEM
[30] = tested on: A549
[31] = tested on: LXFL 529
[32] = tested on: SK-MEL-2
[33] = tested on: OVCAR-4
[34] = tested on: M19-MEL
[35] = tested on: K562
[36] = tested on: NCI-H460
[37] = tested on: SF-268
[38] = tested on: OVCAR-3
[39] = tested on: HCC 2998
[40] = tested on: HOP-62
[41] = tested on: SR
[42] = tested on: HOP-92
[43] = tested on: OVCAR-8
[44] = tested on: COLO 205
[45] = tested on: SK-MEL-28
[46] = tested on: SK-MEL-5
[47] = tested on: HCT-15
[48] = tested on: UO-31
[49] = tested on: NCI-H522
[50] = tested on: 786-0
[51] = tested on: CAKI-1
[52] = tested on: Hs-578T
[53] = tested on: PC-3
[54] = tested on: MCF7
[55] = tested on: SF-295
[56] = tested on: NCI-H226
[57] = tested on: Malme-3M
[58] = tested on: T47D
[59] = tested on: NCI/ADR-RES
[60] = tested on: SK-OV-3
[61] = tested on: MDA-MB-435
[62] = tested on: MDA-N
[63] = tested on: A498
[64] = tested on: MDA-MB-231
[65] = tested on: BT-549
[66] = tested on: DU-145

With `CCCc1[nH]c(SCCCCCCCCSc2nc(-c3ccc(F)cc3)c(CCC)[nH]2)nc1-c1ccc(F)cc1` as the molecule, how does the GI50 [1] read?
Its GI50 is 33 µM (inactive).

And the GI50 [2]?
The GI50 was 5.42 µM (inactive).

And the GI50 [3]?
Its GI50 is 6.41 µM (inactive).

What about the GI50 [4] of the same molecule?
Its GI50 is 2.11 µM (inactive).

What about the GI50 [5] of the same molecule?
Its GI50 is 16.1 µM (inactive).

What about the GI50 [6] of the same molecule?
Its GI50 is 54.1 µM (inactive).

What about the GI50 [7] of the same molecule?
Its GI50 is 4.65 µM (inactive).

What about the GI50 [8] of the same molecule?
Its GI50 is 6.5 µM (inactive).

What about the GI50 [9] of the same molecule?
The GI50 was 17.3 µM (inactive).

And the GI50 [10]?
The GI50 was 35.2 µM (inactive).

And the GI50 [11]?
The GI50 was 12.2 µM (inactive).

And the GI50 [12]?
Its GI50 is 27.4 µM (inactive).

And the GI50 [13]?
The GI50 was 5.58 µM (inactive).

What about the GI50 [14] of the same molecule?
Its GI50 is 3.94 µM (inactive).

What about the GI50 [15] of the same molecule?
The GI50 was 6.21 µM (inactive).

And the GI50 [16]?
The GI50 was > 100 µM (inactive).

What about the GI50 [17] of the same molecule?
Its GI50 is 9.42 µM (inactive).

And the GI50 [18]?
Its GI50 is 4.49 µM (inactive).

And the GI50 [19]?
Its GI50 is 17.7 µM (inactive).

And the GI50 [20]?
The GI50 was 44.3 µM (inactive).

What about the GI50 [21] of the same molecule?
The GI50 was 26.2 µM (inactive).

And the GI50 [22]?
The GI50 was 18.7 µM (inactive).

What about the GI50 [23] of the same molecule?
Its GI50 is 62.7 µM (inactive).

What about the GI50 [24] of the same molecule?
The GI50 was 1.98 µM (inactive).

And the GI50 [25]?
Its GI50 is 4.89 µM (inactive).

And the GI50 [26]?
The GI50 was 37.7 µM (inactive).

And the GI50 [27]?
The GI50 was 10.3 µM (inactive).

What about the GI50 [28] of the same molecule?
Its GI50 is 21.3 µM (inactive).

And the GI50 [29]?
The GI50 was 6.59 µM (inactive).

What about the GI50 [30] of the same molecule?
Its GI50 is 11.3 µM (inactive).

What about the GI50 [31] of the same molecule?
The GI50 was 7.46 µM (inactive).

What about the GI50 [32] of the same molecule?
The GI50 was 24.2 µM (inactive).

What about the GI50 [33] of the same molecule?
The GI50 was 10.3 µM (inactive).

What about the GI50 [34] of the same molecule?
The GI50 was 29.9 µM (inactive).

And the GI50 [35]?
Its GI50 is 3.83 µM (inactive).

What about the GI50 [36] of the same molecule?
Its GI50 is 35.2 µM (inactive).

What about the GI50 [37] of the same molecule?
The GI50 was 3.33 µM (inactive).

What about the GI50 [38] of the same molecule?
The GI50 was 1.94 µM (inactive).

And the GI50 [39]?
Its GI50 is > 100 µM (inactive).

What about the GI50 [40] of the same molecule?
The GI50 was 15.2 µM (inactive).

What about the GI50 [41] of the same molecule?
Its GI50 is 7.08 µM (inactive).

What about the GI50 [42] of the same molecule?
Its GI50 is 3.8 µM (inactive).

And the GI50 [43]?
Its GI50 is 9.84 µM (inactive).

And the GI50 [44]?
Its GI50 is 77.4 µM (inactive).

What about the GI50 [45] of the same molecule?
Its GI50 is 26.7 µM (inactive).

And the GI50 [46]?
The GI50 was 4.68 µM (inactive).

What about the GI50 [47] of the same molecule?
Its GI50 is 7 µM.

What about the GI50 [48] of the same molecule?
The GI50 was 6.11 µM (inactive).

For `Cc1ccc(N2CN3OC(=O)N(c4ccccc4)[C@@]3(c3ccccc3)C2)cc1`, which GI50 [1] is on record?
Its GI50 is > 100 µM (inactive).

What about the GI50 [2] of the same molecule?
Its GI50 is 29.2 µM (inactive).

What about the GI50 [4] of the same molecule?
Its GI50 is 36.6 µM (inactive).

What about the GI50 [49] of the same molecule?
Its GI50 is 10.1 µM (inactive).

And the GI50 [6]?
Its GI50 is 39.4 µM (inactive).

What about the GI50 [7] of the same molecule?
The GI50 was 35.1 µM (inactive).

What about the GI50 [8] of the same molecule?
Its GI50 is 26.2 µM (inactive).

And the GI50 [9]?
The GI50 was 65.5 µM (inactive).

And the GI50 [50]?
The GI50 was 44.5 µM (inactive).

What about the GI50 [51] of the same molecule?
The GI50 was 33.3 µM (inactive).

And the GI50 [10]?
The GI50 was 33.9 µM (inactive).

And the GI50 [11]?
The GI50 was 26.6 µM (inactive).

What about the GI50 [12] of the same molecule?
The GI50 was 25.1 µM (inactive).

What about the GI50 [52] of the same molecule?
The GI50 was 87.9 µM (inactive).

What about the GI50 [13] of the same molecule?
Its GI50 is 21.2 µM (inactive).

And the GI50 [15]?
Its GI50 is 29.4 µM (inactive).

And the GI50 [53]?
The GI50 was 34.2 µM (inactive).

And the GI50 [54]?
The GI50 was 33.7 µM (inactive).

And the GI50 [16]?
Its GI50 is 80 µM (inactive).

What about the GI50 [55] of the same molecule?
The GI50 was 17.5 µM (inactive).

And the GI50 [17]?
Its GI50 is 42.2 µM (inactive).

What about the GI50 [18] of the same molecule?
Its GI50 is 24.2 µM (inactive).

What about the GI50 [19] of the same molecule?
The GI50 was 50.5 µM (inactive).

What about the GI50 [22] of the same molecule?
The GI50 was 30.5 µM (inactive).

And the GI50 [23]?
Its GI50 is 25.1 µM (inactive).

And the GI50 [24]?
The GI50 was 45.6 µM (inactive).

And the GI50 [25]?
Its GI50 is 45.7 µM (inactive).

And the GI50 [56]?
The GI50 was 27 µM (inactive).

What about the GI50 [57] of the same molecule?
Its GI50 is 34 µM (inactive).

And the GI50 [58]?
The GI50 was 14.2 µM (inactive).

What about the GI50 [26] of the same molecule?
Its GI50 is 33 µM (inactive).

What about the GI50 [27] of the same molecule?
Its GI50 is 37.5 µM (inactive).

What about the GI50 [28] of the same molecule?
The GI50 was 92 µM (inactive).

What about the GI50 [29] of the same molecule?
Its GI50 is 34.4 µM (inactive).

And the GI50 [59]?
Its GI50 is 29 µM (inactive).

What about the GI50 [30] of the same molecule?
Its GI50 is 36.5 µM (inactive).

What about the GI50 [32] of the same molecule?
Its GI50 is 19.9 µM (inactive).

What about the GI50 [33] of the same molecule?
Its GI50 is 34.2 µM (inactive).

And the GI50 [60]?
Its GI50 is 40.6 µM (inactive).

What about the GI50 [61] of the same molecule?
The GI50 was 26.4 µM (inactive).

What about the GI50 [35] of the same molecule?
The GI50 was 22.3 µM (inactive).

And the GI50 [36]?
The GI50 was 21.6 µM (inactive).

And the GI50 [37]?
The GI50 was 50.7 µM (inactive).

And the GI50 [38]?
The GI50 was 19.4 µM (inactive).

And the GI50 [39]?
The GI50 was 24.9 µM (inactive).

What about the GI50 [40] of the same molecule?
Its GI50 is 36.1 µM (inactive).

And the GI50 [41]?
The GI50 was 16 µM (inactive).

What about the GI50 [42] of the same molecule?
Its GI50 is 16.9 µM (inactive).

What about the GI50 [62] of the same molecule?
The GI50 was 33.6 µM (inactive).

And the GI50 [43]?
Its GI50 is 57 µM (inactive).

And the GI50 [44]?
The GI50 was 36.1 µM (inactive).

What about the GI50 [63] of the same molecule?
Its GI50 is 32.1 µM (inactive).

And the GI50 [45]?
The GI50 was > 100 µM (inactive).

And the GI50 [46]?
The GI50 was 31.3 µM (inactive).

What about the GI50 [64] of the same molecule?
The GI50 was 26.9 µM (inactive).

What about the GI50 [65] of the same molecule?
The GI50 was 50.4 µM (inactive).

And the GI50 [47]?
The GI50 was 23.2 µM.

And the GI50 [48]?
The GI50 was 57.4 µM (inactive).

What about the GI50 [66] of the same molecule?
Its GI50 is 48.4 µM (inactive).
